# Laboratory results published in US4439426A, “Semisynthetic macrolidic antibiotics, intermediate compounds for their preparation and related pharmaceutical compositions containing them” (priority 1981, dated 1984).
# Assays:
# [1] = Stability in acidic environment at 25° C. (half-life of initial microbiological activity); assay type: physicochemical; settings: aqueous solution
# Description: Stability in acidic environnment at 25° C. of the novel
# Note: t 1/2 represents the time for reducing to one half the initial powe
# of the antibiotic determined by microbiological method through diffusion
# on a plate using the test stock Microccocus luteus (Sarcina lutea) ATCC
# [2] = tested on: Acholeplasma laidlawii ATCC 23206 LRP 204; test: Bacteriostatic power in solid medium (MIC); assay type: cell-based; settings: Acholeplasma laidlawii, ATCC23206; solid medium; read-out: Minimum inhibiting concentration
# Method in brief: (§1)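 Bacteriostatic, not bactericidal, effect: MIC determined per stock; aerobic and anaerobic species, Gram+ and Gram− alike.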
# Bacillus subtilis LRP 25 = test: Bacteriostatic power in solid medium (MIC); assay type: cell-based; settings: Bacillus subtilis, LRP25, read-out: Minimum inhibiting concentration
# Method in brief: as §1
# [3] = tested on: Bacteroides fragilis ATCC 23745 LRP 205; test: Bacteriostatic power in solid medium (MIC); assay type: cell-based; settings: Bacteroides fragilis, ATCC23745, read-out: Minimum inhibiting concentration
# Method in brief: as §1
# [4] = tested on: Corynebacterium diphteriae LRP 24; test: Bacteriostatic power in solid medium (MIC); assay type: cell-based; settings: Corynebacterium, LRP24, read-out: Minimum inhibiting concentration
# Method in brief: as §1
# Escherichia coli LRP 50 = test: Bacteriostatic power in solid medium (MIC); assay type: cell-based; settings: Escherichia coli, LRP50, read-out: Minimum inhibiting concentration
# Method in brief: as §1
# [5] = tested on: Fusobacteriumnecrophroum ATCC 27852 LRP 210; test: Bacteriostatic power in solid medium (MIC); assay type: cell-based; settings: read-out: Minimum inhibiting concentration
# Method in brief: as §1
# [6] = tested on: Haemophilus influenzae ATCC 19418 LRP 213; test: Bacteriostatic power in solid medium (MIC); assay type: cell-based; settings: Haemophilus influenzae, ATCC19418, read-out: Minimum inhibiting concentration
# Method in brief: as §1
# [7] = tested on: Klelsiella pneumoniae LRP 54; test: Bacteriostatic power in solid medium (MIC); assay type: cell-based; settings: read-out: Minimum inhibiting concentration
# Method in brief: as §1
# [8] = tested on: Micrococcus luteus ATCC 15957 LRP 193; test: Bacteriostatic power in solid medium (MIC); assay type: cell-based; settings: Micrococcus luteus, ATCC15957, read-out: Minimum inhibiting concentration
# Method in brief: as §1
# [9] = tested on: Micrococcus luteus ATCC 9341 LRP 6; test: Bacteriostatic power in solid medium (MIC); assay type: cell-based; settings: Micrococcus luteus, ATCC9341, read-out: Minimum inhibiting concentration
# Method in brief: as §1
# [10] = tested on: Mycoplasma hominis I ATCC 14027 LRP 211; test: Bacteriostatic power in solid medium (MIC); assay type: cell-based; settings: Metamycoplasma hominis, ATCC14027, read-out: Minimum inhibiting concentration
# Method in brief: as §1
# [11] = tested on: Neisseria gonorrhoeae ATCC 19424 LRP 214; test: Bacteriostatic power in solid medium (MIC); assay type: cell-based; settings: Neisseria gonorrhoeae, ATCC19424, read-out: Minimum inhibiting concentration
# Method in brief: as §1
# [12] = tested on: Proteus vulgaris ATCC 6380 LRP 13; test: Bacteriostatic power in solid medium (MIC); assay type: cell-based; settings: Proteus vulgaris, ATCC6380, read-out: Minimum inhibiting concentration
# Method in brief: as §1
# [13] = tested on: Pseudomonas aeruginosa LRP 9; test: Bacteriostatic power in solid medium (MIC); assay type: cell-based; settings: Pseudomonas aeruginosa, LRP9, read-out: Minimum inhibiting concentration
# Method in brief: as §1
# Shigella sonnei LRP 5 = test: Bacteriostatic power in solid medium (MIC); assay type: cell-based; settings: LRP5, read-out: Minimum inhibiting concentration
# Method in brief: as §1
# [14] = tested on: Staphylococcus aureus ATCC 14154 LRP 78; test: Bacteriostatic power in solid medium (MIC); assay type: cell-based; settings: Staphylococcus aureus, ATCC14154, read-out: Minimum inhibiting concentration
# Method in brief: as §1
# [15] = tested on: Staphylococcus aureus ATCC 6538P LRP 14; test: Bacteriostatic power in solid medium (MIC); assay type: cell-based; settings: Staphylococcus aureus, ATCC6538P, read-out: Minimum inhibiting concentration
# Method in brief: as §1
# [16] = tested on: Staphylococcus aureus ATCC 6538P LRP 39; test: Bacteriostatic power in solid medium (MIC); assay type: cell-based; settings: Staphylococcus aureus, ATCC6538P, read-out: Minimum inhibiting concentration
# Method in brief: as §1
# [17] = tested on: Streptococcus faecalis LRP 7; test: Bacteriostatic power in solid medium (MIC); assay type: cell-based; settings: Enterococcus faecalis, LRP7, read-out: Minimum inhibiting concentration
# Method in brief: as §1
# [18] = tested on: Streptococcus faecalis subsp. zymogenes ATCC 12958 LRP 61; test: Bacteriostatic power in solid medium (MIC); assay type: cell-based; settings: Enterococcus faecalis, ATCC12958, read-out: Minimum inhibiting concentration
# Method in brief: as §1
# [19] = tested on: Streptococcus pneumoniae ATCC 6303 LRP 35; test: Bacteriostatic power in solid medium (MIC); assay type: cell-based; settings: Streptococcus pneumoniae, ATCC6303, read-out: Minimum inhibiting concentration
# Method in brief: as §1
# [20] = tested on: Streptococcus pneumoniae ATCC 6303 LRP 52; test: Bacteriostatic power in solid medium (MIC); assay type: cell-based; settings: Streptococcus pneumoniae, ATCC6303, read-out: Minimum inhibiting concentration
# Method in brief: as §1
# [21] = tested on: Streptococcus pneumoniae ATCC 6303 LRP 53; test: Bacteriostatic power in solid medium (MIC); assay type: cell-based; settings: Streptococcus pneumoniae, ATCC6303, read-out: Minimum inhibiting concentration
# Method in brief: as §1
# [22] = tested on: Streptococcus pyogenes ATCC 8668 LRP 197; test: Bacteriostatic power in solid medium (MIC); assay type: cell-based; settings: Streptococcus pyogenes, ATCC8668, read-out: Minimum inhibiting concentration
# Method in brief: as §1
# [23] = tested on: Streptococcus pyogenes ATCC 8668 LRP 34; test: Bacteriostatic power in solid medium (MIC); assay type: cell-based; settings: Streptococcus pyogenes, ATCC8668, read-out: Minimum inhibiting concentration
# Method in brief: as §1
# [24] = tested on: Clostridium perfrigens ATCC 3624 LRP 206; test: microbe, parasite or virus in culture; assay type: cell-based; settings: ATCC3624, solid medium, anaerobic, read-out: Minimum inhibiting concentration
# Method in brief: as §1
# Salmonella typhy LRP 8 = test: microbe, parasite or virus in culture; assay type: cell-based; settings: LRP8, solid medium, read-out: Minimum inhibiting concentration
# Method in brief: as §1
# [25] = tested on: Corynebacterium diphteriae LRP 24; test: Bacteriostatic power in liquid medium (MIC); assay type: cell-based; settings: Corynebacterium, LRP24, read-out: Minimum inhibiting concentration
# Method in brief: as §1
# [26] = tested on: Staphylococcus aureus ATCC 6538 P LRP 39; test: Bacteriostatic power in liquid medium (MIC); assay type: cell-based; settings: Staphylococcus aureus, ATCC6538, read-out: Minimum inhibiting concentration
# Method in brief: as §1
# [27] = tested on: Streptococcus faecalis subs. zymogenes ATCC 12958 LRP 61; test: Bacteriostatic power in liquid medium (MIC); assay type: cell-based; settings: Enterococcus faecalis, ATCC12958, read-out: Minimum inhibiting concentration
# Method in brief: as §1
# [28] = tested on: Streptococcus pneumoniae ATCC 6303 LRP 35; test: Bacteriostatic power in liquid medium (MIC); assay type: cell-based; settings: Streptococcus pneumoniae, ATCC6303, read-out: Minimum inhibiting concentration
# Method in brief: as §1
# [29] = tested on: Streptococcus pyogenes ATCC 8668 LRP 34; test: Bacteriostatic power in liquid medium (MIC); assay type: cell-based; settings: Streptococcus pyogenes, ATCC8668, read-out: Minimum inhibiting concentration
# Method in brief: as §1
# [30] = tested on: Corynebacterium diphteriae LRP 24; test: Minimum bactericidal concentration (MBC); assay type: cell-based; settings: Corynebacterium, LRP24, read-out: Minimum bactericidal concentration (MBC)
# From the text: (§2) the bacterial power, expressed as the minimum bactericidal power (MBC) against some Gram positive aerobic stocks (table 5).
# [31] = tested on: Staphylococcus aureus ATCC 6538 P LRP 39; test: Minimum bactericidal concentration (MBC); assay type: cell-based; settings: Staphylococcus aureus, ATCC6538, read-out: Minimum bactericidal concentration (MBC)
# From the text: as §2
# [32] = tested on: Streptococcus faecalis subs. zymogenes LRP 61; test: Minimum bactericidal concentration (MBC); assay type: cell-based; settings: Enterococcus faecalis, read-out: Minimum bactericidal concentration (MBC)
# From the text: as §2
# [33] = tested on: Streptococcus pneumoniae ATCC 6303 LRP 35; test: Minimum bactericidal concentration (MBC); assay type: cell-based; settings: Streptococcus pneumoniae, ATCC6303, read-out: Minimum bactericidal concentration (MBC)
# From the text: as §2
# [34] = tested on: Streptococcus pyogenes ATCC 8668 LRP 34; test: Minimum bactericidal concentration (MBC); assay type: cell-based; settings: Streptococcus pyogenes, ATCC8668, read-out: Minimum bactericidal concentration (MBC)
# From the text: as §2
# [35] = Serum concentrations in the rat after oral administration; assay type: in vivo; settings: rat, in vivo, po, 100 mg/kg
# Description: administration of 100 mg/kg per os. The values, at the
# several sampling times, correspond to mcg of product per ml of serum*.
structure (smiles),measurement,setting,value
"CC[C@H]1OC(=O)[C@H](C)[C@@H](O[C@H]2C[C@@](C)(OC)[C@@H](O)[C@H](C)O2)[C@H](C)[C@@H](O[C@@H]2O[C@H](C)C[C@H](N(C)C)[C@H]2O)[C@](C)(O)C[C@@H](C)C(=O)[C@H](C)[C@@H](O)[C@]1(C)O [Erythromycin A, reference compound]",half-life,[1]; pH 2,2 min
same,half-life,[1]; pH 3,6 min
same,MIC,[2],0.097 µg/mL
same,MIC,Bacillus subtilis LRP 25,0.049 µg/mL
same,MIC,[3],0.195 µg/mL
same,MIC,[4],0.006 µg/mL
same,MIC,Escherichia coli LRP 50,6.25 µg/mL
same,MIC,[5],3.12 µg/mL
same,MIC,[6],3.12 µg/mL
same,MIC,[7],12.5 µg/mL
same,MIC,[8],25 µg/mL
same,MIC,[9],0.006 µg/mL
same,MIC,[10],25 µg/mL
same,MIC,[11],0.049 µg/mL
same,MIC,[12],25 µg/mL
same,MIC,[13],25 µg/mL
same,MIC,Shigella sonnei LRP 5,12.5 µg/mL
same,MIC,[14],25 µg/mL
same,MIC,[15],0.049 µg/mL
same,MIC,[16],0.049 µg/mL
same,MIC,[17],0.097 µg/mL
same,MIC,[18],0.097 µg/mL
same,MIC,[19],0.012 µg/mL
same,MIC,[20],0.012 µg/mL
same,MIC,[21],0.012 µg/mL
same,MIC,[22],0.012 µg/mL
same,MIC,[23],0.012 µg/mL
same,MIC,[24],1.56 µg/mL
same,MIC,Salmonella typhy LRP 8,12.5 µg/mL
same,MIC,[25],0.012 µg/mL
same,MIC,[26],0.097 µg/mL
same,MIC,[27],0.39 µg/mL
same,MIC,[28],0.024 µg/mL
same,MIC,[29],0.024 µg/mL
same,MBC,[30],0.049 µg/mL
same,MBC,[31],1.56 µg/mL
same,MBC,[32],6.25 µg/mL
same,MBC,[33],0.097 µg/mL
same,MBC,[34],0.39 µg/mL
same,concentration at 2 h,"[35]; 100 mg/kg per os, 2 hours",1140 ng/mL
same,concentration at 0.5 h,"[35]; Serum concentration, average",478 ng/mL
same,concentration at 1 h,"[35]; Serum concentration, average",534 ng/mL
same,concentration at 4 h,"[35]; Serum concentration, average",262 ng/mL
same,concentration at 6 h,"[35]; Serum concentration, average",165 ng/mL
